Calls of active or inactive are those of the source.
Key:
[1] = Luminescence Cell-Based Dose Confirmation HTS to Identify Activators of 5'UTR Stem-Loop Driven Alpha-Synuclein mRNA Translation in H4 Neuroglioblastoma Cells. [Related pubchem assays: 1829 (Project Summary), 1814 (Primary HTS)]; type: functional
[2] = Luminescence Cell-Based Dose Response HTS to Identify Activators of Luciferase Translation or Activity in H4 […] Cells. [Related pubchem assays: 1829 (Project Summary), 1814 (Primary HTS)]; type: functional
H4 = experiment: Luminescence Cell-Based Dose Response HTS to Identify Activators of 5'UTR Stem-Loop Driven Prion Protein mRNA Translation in H4 Neuroglioblastoma Cells. [Related pubchem assays: 1829 (Project Summary), 1814 (Primary HTS)]; type: functional; conditions: Homo sapiens
[3] = target: T1, Heat shock factor protein 1 (Mus musculus, UniProt P38532); experiment: inhibition of MG132-induced HSE-luciferase signal, confirmation, cell-based, NIH3T3, luminescence, dose retest (AID 2382); type: functional;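 also: NIH3T3 fibroblasts with HSF1-driven luciferase reporter stressed by proteasome inhibitor MG132; luminescence from HSF1-driven luciferase expression after 8 hours of MG132 stress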
T1 sequence (P38532 whole entry): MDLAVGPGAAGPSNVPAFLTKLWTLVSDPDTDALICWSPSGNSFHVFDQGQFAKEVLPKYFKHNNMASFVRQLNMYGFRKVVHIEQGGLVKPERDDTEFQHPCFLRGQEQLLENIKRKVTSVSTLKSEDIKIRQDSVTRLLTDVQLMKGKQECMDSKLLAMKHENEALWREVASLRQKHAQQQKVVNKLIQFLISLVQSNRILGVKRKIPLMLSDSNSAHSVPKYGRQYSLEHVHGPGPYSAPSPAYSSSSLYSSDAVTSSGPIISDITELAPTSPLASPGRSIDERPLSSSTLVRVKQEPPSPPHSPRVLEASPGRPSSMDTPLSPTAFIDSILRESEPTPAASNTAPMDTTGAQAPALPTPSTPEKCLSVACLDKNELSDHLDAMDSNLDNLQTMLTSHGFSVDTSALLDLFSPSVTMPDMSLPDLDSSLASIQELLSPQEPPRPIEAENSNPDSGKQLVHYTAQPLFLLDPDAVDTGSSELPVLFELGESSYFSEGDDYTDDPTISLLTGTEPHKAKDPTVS

[4] = HEp-2 cell cytotoxicity, dose response, cytotoxicity control for RSV inhibitor project, HTS (AID 2410); type: functional; conditions: human respiratory syncytial virus
[5] = target: T2, Replicative DNA helicase DnaB (Mycobacterium tuberculosis, UniProt P9WMR3); experiment: DnaB intein splicing inhibitors, dose response, biochemical, cell-free fluorescence (AID 449749); type: functional
T2 sequence (P9WMR3 whole entry): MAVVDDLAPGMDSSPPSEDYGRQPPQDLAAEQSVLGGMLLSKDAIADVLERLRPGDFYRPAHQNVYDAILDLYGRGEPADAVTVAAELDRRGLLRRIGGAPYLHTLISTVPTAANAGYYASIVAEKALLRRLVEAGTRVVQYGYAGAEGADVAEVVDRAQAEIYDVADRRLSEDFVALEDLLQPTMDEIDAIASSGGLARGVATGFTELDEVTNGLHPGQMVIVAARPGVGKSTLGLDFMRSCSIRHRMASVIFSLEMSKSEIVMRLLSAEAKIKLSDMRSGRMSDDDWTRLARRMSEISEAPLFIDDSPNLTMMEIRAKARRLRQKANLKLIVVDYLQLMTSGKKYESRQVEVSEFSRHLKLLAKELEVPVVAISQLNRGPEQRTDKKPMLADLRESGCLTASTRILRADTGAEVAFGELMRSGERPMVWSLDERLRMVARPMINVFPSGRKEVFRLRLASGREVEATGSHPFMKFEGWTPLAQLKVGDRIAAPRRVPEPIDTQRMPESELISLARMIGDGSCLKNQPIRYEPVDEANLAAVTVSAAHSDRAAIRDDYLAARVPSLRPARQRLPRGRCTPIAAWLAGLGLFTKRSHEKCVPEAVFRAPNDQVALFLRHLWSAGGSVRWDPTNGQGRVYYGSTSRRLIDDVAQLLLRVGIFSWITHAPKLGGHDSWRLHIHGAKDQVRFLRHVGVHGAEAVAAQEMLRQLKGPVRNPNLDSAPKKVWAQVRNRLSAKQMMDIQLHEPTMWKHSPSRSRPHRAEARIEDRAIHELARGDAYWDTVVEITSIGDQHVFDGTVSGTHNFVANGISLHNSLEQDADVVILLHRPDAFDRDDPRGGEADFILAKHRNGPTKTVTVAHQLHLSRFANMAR

Protein RecA = target: T3, Protein RecA (Mycobacterium tuberculosis, UniProt P9WHJ3); experiment: Fluorescence Cell-Free Homogeneous Dose Retest to Identify Inhibitors of RecA-Intein Splicing Activity. [Related pubchem assays (depositor defined):AID2097, AID2223, AID489010, AID492950]; type: functional
T3 sequence (P9WHJ3 whole entry): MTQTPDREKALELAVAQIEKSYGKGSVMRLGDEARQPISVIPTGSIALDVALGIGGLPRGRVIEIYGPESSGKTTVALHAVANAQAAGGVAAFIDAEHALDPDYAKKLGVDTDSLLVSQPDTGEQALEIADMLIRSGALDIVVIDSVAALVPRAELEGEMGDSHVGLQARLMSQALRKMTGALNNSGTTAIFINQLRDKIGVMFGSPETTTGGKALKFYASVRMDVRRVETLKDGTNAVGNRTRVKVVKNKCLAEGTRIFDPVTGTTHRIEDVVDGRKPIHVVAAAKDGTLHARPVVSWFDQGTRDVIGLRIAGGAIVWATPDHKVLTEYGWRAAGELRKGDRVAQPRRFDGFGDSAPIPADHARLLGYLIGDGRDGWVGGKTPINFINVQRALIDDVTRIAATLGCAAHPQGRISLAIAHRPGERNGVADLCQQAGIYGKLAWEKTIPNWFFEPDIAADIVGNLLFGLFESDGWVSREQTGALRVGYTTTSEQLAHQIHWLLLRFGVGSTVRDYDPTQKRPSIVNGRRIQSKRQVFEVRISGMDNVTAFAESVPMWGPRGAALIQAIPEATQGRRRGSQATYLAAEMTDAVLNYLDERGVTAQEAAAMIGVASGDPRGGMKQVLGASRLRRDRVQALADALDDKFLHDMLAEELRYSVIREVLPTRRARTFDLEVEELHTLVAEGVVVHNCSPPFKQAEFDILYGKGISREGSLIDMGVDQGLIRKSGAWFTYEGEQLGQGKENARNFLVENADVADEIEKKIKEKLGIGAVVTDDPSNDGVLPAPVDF

[6] = target: T4, Rac GTPase-activating protein 1 (Homo sapiens, UniProt Q9H0H5); experiment: MgcRacGAP GTPase-activating activity inhibitors, confirmation, biochemical, ADP Hunter fluorescence, primary and confirmatory (AID 624330); type: functional
T4 sequence (Q9H0H5 whole entry): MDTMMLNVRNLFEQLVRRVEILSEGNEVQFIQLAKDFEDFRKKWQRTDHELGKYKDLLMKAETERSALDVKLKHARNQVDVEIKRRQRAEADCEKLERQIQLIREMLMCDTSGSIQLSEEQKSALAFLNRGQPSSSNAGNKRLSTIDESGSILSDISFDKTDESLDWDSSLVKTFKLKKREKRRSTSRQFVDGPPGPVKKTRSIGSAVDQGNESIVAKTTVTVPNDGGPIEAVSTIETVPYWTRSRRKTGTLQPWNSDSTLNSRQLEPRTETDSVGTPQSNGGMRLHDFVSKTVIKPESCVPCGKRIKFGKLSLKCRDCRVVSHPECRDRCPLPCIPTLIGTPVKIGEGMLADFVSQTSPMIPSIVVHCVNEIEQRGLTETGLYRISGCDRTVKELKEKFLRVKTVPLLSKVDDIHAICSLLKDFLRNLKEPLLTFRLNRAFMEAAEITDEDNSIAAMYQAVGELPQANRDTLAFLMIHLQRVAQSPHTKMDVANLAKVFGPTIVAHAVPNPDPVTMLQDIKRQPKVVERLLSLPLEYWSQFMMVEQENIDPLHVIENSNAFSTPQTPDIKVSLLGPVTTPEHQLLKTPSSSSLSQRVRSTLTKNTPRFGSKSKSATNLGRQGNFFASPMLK

[7] = target: T1, Heat shock factor protein 1; experiment: HSF1 potentiators in luciferase reporter cells, confirmation, cell-based, NIH3T3, luminescence, dose retest (AID 435004); type: functional;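 also: stress induced by proteasome inhibitor MG132 added 30 min after compound; luciferase reporter driven by HSF1 response element in NIH3T3 cells; actives raise luminescence as potentiators of the MG132 stress response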
Cytochrome P450 1A2 = target: T5, Cytochrome P450 1A2 (Homo sapiens, UniProt P05177);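 also: PubChem cytochrome P450 panel assay, CYP1A2 panel member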
T5 sequence (P05177 whole entry): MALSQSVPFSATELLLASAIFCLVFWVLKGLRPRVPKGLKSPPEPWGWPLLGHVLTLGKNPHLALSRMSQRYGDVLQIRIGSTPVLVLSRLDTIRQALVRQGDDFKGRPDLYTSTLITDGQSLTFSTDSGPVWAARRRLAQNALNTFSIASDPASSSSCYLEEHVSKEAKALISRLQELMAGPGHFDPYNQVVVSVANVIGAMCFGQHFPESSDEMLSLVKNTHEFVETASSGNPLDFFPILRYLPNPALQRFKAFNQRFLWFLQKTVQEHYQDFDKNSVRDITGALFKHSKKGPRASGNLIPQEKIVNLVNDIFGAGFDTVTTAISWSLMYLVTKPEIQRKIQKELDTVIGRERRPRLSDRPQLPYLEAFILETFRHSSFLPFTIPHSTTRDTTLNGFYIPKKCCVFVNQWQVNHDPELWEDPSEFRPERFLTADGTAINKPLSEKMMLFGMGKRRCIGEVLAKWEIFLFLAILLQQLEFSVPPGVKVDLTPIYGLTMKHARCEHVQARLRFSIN

Cytochrome P450 3A4 = Cytochrome P450 3A4 (Homo sapiens, UniProt P08684);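 also: CYP3A4 tested as one member of a cytochrome P450 panel screen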
Cytochrome P450 3A4, sequence (P08684 whole entry): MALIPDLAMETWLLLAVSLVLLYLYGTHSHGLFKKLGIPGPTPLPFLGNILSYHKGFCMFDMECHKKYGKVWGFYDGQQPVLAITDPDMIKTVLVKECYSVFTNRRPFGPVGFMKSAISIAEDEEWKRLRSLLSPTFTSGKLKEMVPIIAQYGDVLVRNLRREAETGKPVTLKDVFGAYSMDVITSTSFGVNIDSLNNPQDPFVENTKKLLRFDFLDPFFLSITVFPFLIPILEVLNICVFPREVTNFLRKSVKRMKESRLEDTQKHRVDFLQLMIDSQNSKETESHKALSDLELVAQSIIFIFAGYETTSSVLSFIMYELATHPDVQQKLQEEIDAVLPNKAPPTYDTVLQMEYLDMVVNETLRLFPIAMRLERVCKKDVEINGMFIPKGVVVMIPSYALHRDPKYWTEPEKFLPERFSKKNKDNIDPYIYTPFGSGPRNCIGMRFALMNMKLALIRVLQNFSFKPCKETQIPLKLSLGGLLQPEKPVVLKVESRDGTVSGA

Paired box protein Pax-8 = Paired box protein Pax-8 (Homo sapiens, UniProt Q06710); experiment: inhibitors of PAX8-driven TPO luciferase reporter, dose response, RMG-I cells, cherry-pick (AID 687027); type: functional, cell-based;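 also: luciferase reporter driven by Pax8 target thyroperoxidase promoter measured by SteadyGlo luminescence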
Paired box protein Pax-8, sequence (Q06710 whole entry): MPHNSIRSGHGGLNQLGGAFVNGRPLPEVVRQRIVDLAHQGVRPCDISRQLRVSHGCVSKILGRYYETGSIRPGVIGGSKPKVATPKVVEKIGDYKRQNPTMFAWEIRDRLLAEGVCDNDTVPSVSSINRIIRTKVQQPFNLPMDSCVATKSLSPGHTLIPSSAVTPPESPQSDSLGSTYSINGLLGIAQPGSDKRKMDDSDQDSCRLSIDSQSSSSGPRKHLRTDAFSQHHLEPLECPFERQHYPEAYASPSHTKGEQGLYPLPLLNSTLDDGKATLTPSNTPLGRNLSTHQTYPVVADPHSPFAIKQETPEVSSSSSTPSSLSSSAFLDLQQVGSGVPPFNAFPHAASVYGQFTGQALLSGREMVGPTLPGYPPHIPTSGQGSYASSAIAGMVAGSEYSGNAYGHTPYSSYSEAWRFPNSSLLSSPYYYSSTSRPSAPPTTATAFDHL

SMILES	EC50 [1]	EC50 [2]	EC50 (H4)	EC50 [3]	also measured
CCOc1ccc(NC(=O)c2cccc3ccccc23)cc1	72.3 µM (active)	11.5 µM (active)	> 120 µM (not active)		
CCc1ccc(NC(=O)c2cnc3scc(C)n3c2=O)cc1	9.98 µM (active)	17.6 µM (active)	12.6 µM (active)		
CSc1ccc(N2C(=O)NC3(CCCCC3)C2=O)cc1	20.4 µM (active)	96.3 µM (active)	19.7 µM (active)		
O=C(CSc1ncccn1)NCCc1ccccc1				> 195 µM (not active)	
COc1cccc(-n2c(SCC(=O)NCC3CCCO3)nc3c(c2=O)SCC3)c1 (stereo unspecified)				> 195 µM (not active)	
Cc1cc(O)ccc1Nc1nc(-c2cccs2)cs1					CC50 [4]: 21 µM (active); AC50 [5]: 13.2 µM (active); EC50 (Protein RecA): 11.5 µM (active); IC50 [6]: 46.5 µM (active)
Cc1ccc(NC(=O)CN(C)C2CCCCC2)cc1Cl				> 195 µM (not active)	IC50 [6]: 152 µM (active)
O=C(CSCc1ccccc1)Nc1ccc2c(c1)OCO2	26 µM (active)	2.27 µM (inconclusive)	18.6 µM (active)		
COc1cccc(CNc2ccc([N+](=O)[O-])cc2Cl)c1O					EC50 [7]: 163 µM (active)
Cc1ccc2c(c1)c1cccc3c1n2CCN3CCC(N)=O	1.71 µM (active)	> 120 µM (not active)	9.21 µM (active)		
Cc1ccc(SCCCCN2CCOCC2)cc1					EC50 [7]: > 260 µM (inactive)
CC(C)(C)c1cc(-n2ccnc2)n2ncc(-c3ccc(Cl)cc3)c2n1	> 120 µM (not active)	13.7 µM (active)	78.9 µM (active)		
Oc1ccccc1N1CCN(c2ncnc3scc(-c4ccc(F)cc4)c23)CC1				> 195 µM (not active)	
COc1ccc([C@@H]2[C@@H]3C(=O)N(C(C)(C)C)C(=O)[C@@H]3[C@]3(Cc4ccccc4)C(=O)N(c4cccc(C)c4)C(=O)N23)cc1	> 120 µM (not active)	> 120 µM (not active)	> 120 µM (not active)		
Oc1onc(-c2ccccc2)c1-c1ccccc1				> 195 µM (not active)	
CCCNC(=O)NC1C(NC(=O)NCCC)N(C)C(=O)N1C (stereo unspecified)				> 195 µM (not active)	
COc1ccccc1NC(=O)[C@H](COCc1ccccc1)NC(=O)OC(C)(C)C				> 195 µM (not active)	AC50 (Cytochrome P450 1A2): 25.1 µM (inconclusive); AC50 (Cytochrome P450 3A4): 39.8 µM (inconclusive)
C=CCn1c(C)cc(C(=O)COC(=O)CNC(=O)c2ccccc2)c1C				2.44 µM (active)	
CC1=CC(C)=Nc2cc(C)ccc2N1	33.3 µM (active)	> 60 µM (not active)	41.1 µM (active)		
CCOc1ccc(NC(=O)C2CC(=O)N3CCCN=C3S2)cc1 (stereo unspecified)					EC50 [7]: > 260 µM (inactive)
Cc1ccc(S(=O)(=O)n2ccc(=O)[nH]2)cc1				> 195 µM (not active)	
COc1ccc(C(c2nnnn2Cc2ccccc2)N2CCC(n3c(O)nc4ccccc43)CC2)cc1 (stereo unspecified)					AC50 (Paired box protein Pax-8): 6.91 µM (active)
O=C(Cc1ccccc1)Nc1cc(Cl)ccc1Sc1ccccc1					EC50 [7]: > 260 µM (inactive)
CN(C)c1ccc(/C=N/NC(=O)c2ccccc2Cl)cc1				> 195 µM (not active)	
